We go through eight molecules from US20160122320A1, “USEFUL COMBINATIONS OF MONOBACTAM ANTIBIOTICS WITH BETA-LACTAMASE INHIBITORS” (Basilea Pharmaceutica AG, priority 2005, published 2016).

Structures are written as SMILES. Structures can show the parent of a compound that is named as a salt.

What all share (assay): MIC, NCCLS broth microdilution
What all share (assay type): cell-based
On the technique in general: Broth dilution looks for growth in wells or tubes with falling amounts of substance.

The subject of experiment [1] is Enterobacter cloacae P99. Particulars: for MIC of antibiotic at fixed inhibitor concentration (4 mg/L): MIC of antibiotic compound 1 with the labelled bridged monobactam of formula II and clavulanate, 4 mg/L each; for MIC of antibiotic: antibiotic alone, no inhibitor.
For experiment [2], the system named is Pseudomonas aeruginosa 1973E. The settings on record: for MIC of antibiotic at fixed inhibitor concentration (4 mg/L): MIC of antibiotic compound 1 with the labelled bridged monobactam of formula II and clavulanate, 4 mg/L each; for MIC of antibiotic: antibiotic alone, no inhibitor. In a few lines: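 Broth microdilution following NCCLS M7-A5, with final DMSO ≤1%. Plates were incubated overnight at 30° C. or 37° C. and growth was read by eye; MIC is the lowest concentration giving complete inhibition of visible growth. In combination tests the formula I compound was serially diluted while partner compounds were held at 4 μg/mL each.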

Experiment [3] relates to Acinetobacter sp. J2. Particulars: for MIC of antibiotic at fixed inhibitor concentration (4 mg/L): Acinetobacter sp. J2, MIC of antibiotic compound 1 with the labelled bridged monobactam of formula II and clavulanate, 4 mg/L each; for MIC of antibiotic / MIC of antibiotic at fixed inhibitor concentration of 4 mg/L: Acinetobacter baumannii J2; for MIC of antibiotic: antibiotic alone, no inhibitor.

Experiment [4] concerns Stenotrophomonas malthophilia 1AC736. Particulars: for MIC of antibiotic at fixed inhibitor concentration (4 mg/L): Stenotrophomonas malthophilia 1AC736, MIC of antibiotic compound 1 with the labelled bridged monobactam of formula II and clavulanate, 4 mg/L each; for MIC of antibiotic / MIC of antibiotic at fixed inhibitor concentration of 4 mg/L: Stenotrophomonas maltophilia 1AC736; for MIC of antibiotic: antibiotic alone, no inhibitor.

In experiment [5] the test system is Klebsiella pneumoniae CF104. Particulars: for MIC of antibiotic at fixed inhibitor concentration (4 mg/L): MIC of antibiotic compound 1 with the labelled bridged monobactam of formula II and clavulanate, 4 mg/L each; for MIC of antibiotic: antibiotic alone, no inhibitor.
Experiment [6] relates to Pseudomonas aeruginosa MK1184. The settings on record: for MIC of antibiotic at fixed inhibitor concentration (4 mg/L): MIC of antibiotic compound 1 with the labelled bridged monobactam of formula II and clavulanate, 4 mg/L each; for MIC of antibiotic: antibiotic alone, no inhibitor.
Experiment [7] has as its system Serratia marcescens S6. Particulars: for MIC of antibiotic at fixed inhibitor concentration (4 mg/L): MIC of antibiotic compound 1 with the labelled bridged monobactam of formula II and clavulanate, 4 mg/L each; for MIC of antibiotic: antibiotic alone, no inhibitor.

On to `O=C(Nc1ccc(NC(=O)N2CC[C@@H]3[C@H]2C(=O)N3S(=O)(=O)O)cc1)N1CCNCC1` [Compound 326, (1S,5R)-7-oxo-2-{N-[4-(piperazinylcarbonylamino)phenyl]carbamoyl}-2,6-diazabicyclo[3.2.0]heptane-6-sulfonic acid], for which the “MIC of antibiotic at fixed inhibitor concentration (4 mg/L)” value in experiment [1] is 8 µg/mL; in experiment [2] it was 4 µg/mL; in experiment [3] it was 4 µg/mL; in experiment [4], 0.125 µg/mL; in experiment [5], above 32 µg/mL; in experiment [6] it was 32 µg/mL. In addition, the “MIC of antibiotic at fixed inhibitor concentration (4 mg/L)” value in experiment [7] is 0.125 µg/mL.
`Cc1ccc(C(N)=O)c[n+]1CC(=O)N1CC[C@@H]2[C@H]1C(=O)N2S(=O)(=O)[O-]` [Compound 111, (1S,5R)-2-[2-(3-carbamoyl-6-methylpyridinium)acetyl]-7-oxo-2,6-diazabicyclo[3.2.0]heptane-6-sulfonate, inner salt]: the “MIC of antibiotic at fixed inhibitor concentration (4 mg/L)” value in experiment [1] is 4 µg/mL; in experiment [2] it was 4 µg/mL; in experiment [3] it was 4 µg/mL; in experiment [4] it was 0.125 µg/mL; in experiment [5] it was below 0.06 µg/mL; in experiment [6] it was 8 µg/mL. Also, in experiment [7], the “MIC of antibiotic at fixed inhibitor concentration (4 mg/L)” value came out at 0.25 µg/mL.
Turning to `O=C(C[n+]1cccc(C(F)(F)F)c1)N1CC[C@@H]2[C@H]1C(=O)N2S(=O)(=O)[O-]` [Compound 120, (1S,5R)-7-oxo-2-{2-[3-(trifluoromethyl)pyridinium]acetyl}-2,6-diazabicyclo[3.2.0]heptane-6-sulfonate, inner salt], the “MIC of antibiotic at fixed inhibitor concentration (4 mg/L)” value was found to be 32 µg/mL in experiment [1]; 8 µg/mL in experiment [2]; 32 µg/mL in experiment [3]; 0.125 µg/mL in experiment [4]; 0.25 µg/mL in experiment [5]; 16 µg/mL in experiment [6]. Moreover, in experiment [7], the “MIC of antibiotic at fixed inhibitor concentration (4 mg/L)” value was found to be 0.25 µg/mL.
`CC1(C)C(NC(=O)C(=NOCc2cc(=O)c(O)cn2O)c2nsc(N)n2)C(=O)N1OS(=O)(=O)O` (stereo not drawn) [Compound 32]: the MIC of antibiotic in experiment [1] is 32 µg/mL; in experiment [2] it was 16 µg/mL; in experiment [3], above 32 µg/mL; in experiment [4], 0.5 µg/mL; in experiment [5] it was above 32 µg/mL; in experiment [6] it was 4 µg/mL. Further, in experiment [7], the MIC of antibiotic amounted to 0.5 µg/mL. In addition, the “MIC of antibiotic at fixed inhibitor concentration of 4 mg/L” value came to 8 µg/mL in experiment [1] (with 102 and clavulanate); 4 µg/mL in experiment [1] (with 324 and clavulanate); 8 µg/mL in experiment [2] (with 102 and clavulanate); 8 µg/mL in experiment [2] (with 324 and clavulanate); 4 µg/mL in experiment [3] (with 102 and clavulanate); 8 µg/mL in experiment [3] (with 324 and clavulanate). For the same molecule, the “MIC of antibiotic at fixed inhibitor concentration of 4 mg/L” value in experiment [4] (with 102 and clavulanate) was determined as 0.5 µg/mL; in experiment [4] (with 324 and clavulanate) it was 0.5 µg/mL; in experiment [5] (with 102 and clavulanate), 1 µg/mL; in experiment [5] (with 324 and clavulanate), 2 µg/mL; in experiment [6] (with 102 and clavulanate), 4 µg/mL; in experiment [6] (with 324 and clavulanate) it was 4 µg/mL. For the same molecule, the “MIC of antibiotic at fixed inhibitor concentration of 4 mg/L” value in experiment [7] (with 102 and clavulanate) was 0.25 µg/mL; in experiment [7] (with 324 and clavulanate), 0.25 µg/mL.
Turning to `O=C(C[n+]1ccc2ccccc2c1)N1CC[C@@H]2[C@H]1C(=O)N2S(=O)(=O)[O-]` [Compound 104, (1S,5R)-2-(2-(2-isoquinolinium)acetyl)-7-oxo-2,6-diazabicyclo[3.2.0]heptane-6-sulfonate, inner salt], the “MIC of antibiotic at fixed inhibitor concentration (4 mg/L)” value in experiment [1] was 32 µg/mL; in experiment [2], 4 µg/mL; in experiment [3], above 32 µg/mL; in experiment [4] it was 0.125 µg/mL; in experiment [5], 0.5 µg/mL; in experiment [6] it was 32 µg/mL. For the same molecule, in experiment [7], the “MIC of antibiotic at fixed inhibitor concentration (4 mg/L)” value was 2 µg/mL.
As to `C[N+]1(CC(=O)N2CC[C@@H]3[C@H]2C(=O)N3S(=O)(=O)[O-])CCN(C(=O)n2ccnc2)CC1` [Compound 407, (1S,5R)-2-{2-[4-(imidazolylcarbonyl)-1-methylpiperazinium]acetyl}-7-oxo-2,6-diazabicyclo[3.2.0]heptane-6-sulfonate, inner salt], the “MIC of antibiotic at fixed inhibitor concentration (4 mg/L)” value is 32 µg/mL in experiment [1]; 8 µg/mL in experiment [2]; above 32 µg/mL in experiment [3]; 0.125 µg/mL in experiment [4]; 1 µg/mL in experiment [5]; above 32 µg/mL in experiment [6]. The “MIC of antibiotic at fixed inhibitor concentration (4 mg/L)” value in experiment [7] stood at 0.5 µg/mL.
On to `C[C@H]1[C@H](NC(=O)/C(=N\OCc2cc(=O)c(O)cn2O)c2nccc(N)n2)C(=O)N1S(=O)(=O)O` [Compound 21, (3S,4S)-3-{(2Z)-2-(4-aminopyrimidin-2-yl)-3-[(1,5-dihydroxy-4-oxo(2-hydropyridyl))methoxy]-3-azaprop-2-enoylamino}-4-methyl-2-oxoazetidinesulfonic acid], for which the MIC of antibiotic in experiment [1] is above 32 µg/mL; in experiment [2], 8 µg/mL; in experiment [3], above 32 µg/mL; in experiment [4] it was 8 µg/mL; in experiment [5], above 32 µg/mL; in experiment [6], above 32 µg/mL. Also, in experiment [7], the MIC of antibiotic worked out at 8 µg/mL. For the same molecule, the “MIC of antibiotic at fixed inhibitor concentration of 4 mg/L” value in experiment [1] (with 102 and clavulanate) was 32 µg/mL; in experiment [1] (with 102 and sulbactam), 32 µg/mL; in experiment [1] (with 323 and clavulanate) it was 8 µg/mL; in experiment [1] (with 323 and sulbactam), 8 µg/mL; in experiment [1] (with 324 and sulbactam), 8 µg/mL; in experiment [2] (with 102 and clavulanate), 8 µg/mL. Also, the “MIC of antibiotic at fixed inhibitor concentration of 4 mg/L” value in experiment [2] (with 102 and sulbactam) was 16 µg/mL; in experiment [2] (with 323 and clavulanate) it was 16 µg/mL; in experiment [2] (with 323 and sulbactam), 32 µg/mL; in experiment [2] (with 324 and sulbactam), 16 µg/mL; in experiment [3] (with 102 and clavulanate), above 32 µg/mL; in experiment [3] (with 102 and sulbactam), 2 µg/mL. The “MIC of antibiotic at fixed inhibitor concentration of 4 mg/L” value is 8 µg/mL in experiment [3] (with 323 and clavulanate); 2 µg/mL in experiment [3] (with 323 and sulbactam); 2 µg/mL in experiment [3] (with 324 and sulbactam); 2 µg/mL in experiment [4] (with 102 and clavulanate); 8 µg/mL in experiment [4] (with 102 and sulbactam); 2 µg/mL in experiment [4] (with 323 and clavulanate). The “MIC of antibiotic at fixed inhibitor concentration of 4 mg/L” value is 4 µg/mL in experiment [4] (with 323 and sulbactam); 4 µg/mL in experiment [4] (with 324 and sulbactam); below 0.06 µg/mL in experiment [5] (with 102 and clavulanate); 2 µg/mL in experiment [5] (with 102 and sulbactam); 2 µg/mL in experiment [5] (with 323 and clavulanate); 1 µg/mL in experiment [5] (with 323 and sulbactam). In addition, the “MIC of antibiotic at fixed inhibitor concentration of 4 mg/L” value in experiment [5] (with 324 and sulbactam) is 4 µg/mL; in experiment [6] (with 102 and clavulanate), 16 µg/mL; in experiment [6] (with 102 and sulbactam), 32 µg/mL; in experiment [6] (with 323 and clavulanate) it was 32 µg/mL; in experiment [6] (with 323 and sulbactam), 8 µg/mL; in experiment [6] (with 324 and sulbactam), 32 µg/mL. The “MIC of antibiotic at fixed inhibitor concentration of 4 mg/L” value in experiment [7] (with 102 and clavulanate) stood at 0.5 µg/mL; in experiment [7] (with 102 and sulbactam) it was 16 µg/mL; in experiment [7] (with 323 and clavulanate), 2 µg/mL; in experiment [7] (with 323 and sulbactam) it was 2 µg/mL; in experiment [7] (with 324 and sulbactam), 4 µg/mL.
For `O=C(NCc1ccccc1)N1CC[C@@H]2[C@H]1C(=O)N2S(=O)(=O)[O-].[Na+]` [Compound 302], the “MIC of antibiotic at fixed inhibitor concentration (4 mg/L)” value was 32 µg/mL in experiment [1]; 4 µg/mL in experiment [2]; above 32 µg/mL in experiment [3]; 0.125 µg/mL in experiment [4]; 2 µg/mL in experiment [5]; above 32 µg/mL in experiment [6]. Moreover, the “MIC of antibiotic at fixed inhibitor concentration (4 mg/L)” value in experiment [7] turned out to be 0.25 µg/mL.
